Test results published in patent US11654121B1 (priority 2022, dated 2023).

Tests used:
SARS-CoV-2 = test: CellTiter-Glo host cell viability assay of SARS-CoV-2-infected Vero E6 cells; assay type: cell-based; conditions: for host cell viability: hypericin 0 μM
Protocol: Vero E6 cells were seeded at 25,000 cells/well in 96-well plates and SARS-CoV-2 was added into the wells at a MOI of 0.01. After 1 hour, hypericin (Cayman Chemical, ≥95% purity) was added into the wells at final concentrations of 1.5625-100 μM or the vehicle only control (DMSO), followed by the addition of remdesivir (Novation Chemicals, 98% purity) at final concentrations of 0.3125-5 μM or the vehicle only control (DMSO), and incubated at 37° C.
After 72 hours of incubation, host cell viability was assessed using CellTiter-Glo® Luminescent Cell Viability Assay (Promega) according to the manufacturer's instructions. Results were normalized to the highest dose of remdesivir alone (5 μM) and are summarized below in Table 1.

[1] = test system: SARS-CoV-2 virus [B.1.351]; assay type: in vivo, mice; conditions: Hypericin 20 mg/kg alone, pre-treatment from two days prior to infection; day 4 post-infection

| SMILES | host cell viability (SARS-CoV-2; remdesivir 0.3125 μM, 72 h, normalized to remdesivir 5 μM alone) | host cell viability (SARS-CoV-2; remdesivir 0.625 μM, 72 h, normalized to remdesivir 5 μM alone) | host cell viability (SARS-CoV-2; remdesivir 1.25 μM, 72 h, normalized to remdesivir 5 μM alone) | host cell viability (SARS-CoV-2; remdesivir 2.5 μM, 72 h, normalized to remdesivir 5 μM alone) | mice in which all infectious titers were eliminated [1] | viability at 1.563 µM (SARS-CoV-2; Severe acute respiratory syndrome coronavirus 2, Vero C1008, hypericin 1.563 μM, remdesivir 0 μM, 72 h, normalized to remdesivir 5 μM alone) | viability at 3.125 µM (SARS-CoV-2; Severe acute respiratory syndrome coronavirus 2, Vero C1008, hypericin 3.125 μM, remdesivir 0 μM, 72 h, normalized to remdesivir 5 μM alone) | viability at 6.25 µM (SARS-CoV-2; Severe acute respiratory syndrome coronavirus 2, Vero C1008, hypericin 6.25 μM, remdesivir 0 μM, 72 h, normalized to remdesivir 5 μM alone) | viability at 12.5 µM (SARS-CoV-2; Severe acute respiratory syndrome coronavirus 2, Vero C1008, hypericin 12.5 μM, remdesivir 0 μM, 72 h, normalized to remdesivir 5 μM alone) | viability at 25 µM (SARS-CoV-2; Severe acute respiratory syndrome coronavirus 2, Vero C1008, hypericin 25 μM, remdesivir 0 μM, 72 h, normalized to remdesivir 5 μM alone) | viability at 50 µM (SARS-CoV-2; Severe acute respiratory syndrome coronavirus 2, Vero C1008, hypericin 50 μM, remdesivir 0 μM, 72 h, normalized to remdesivir 5 μM alone) | viability at 100 µM (SARS-CoV-2; Severe acute respiratory syndrome coronavirus 2, Vero C1008, hypericin 100 μM, remdesivir 0 μM, 72 h, normalized to remdesivir 5 μM alone) | viability at 50 µM (SARS-CoV-2; Severe acute respiratory syndrome coronavirus 2, Vero C1008, hypericin alone (12.5-100 μM), up to, at 50 μM) | effect on host cell viability in words (SARS-CoV-2; hypericin (25-50 μM) alone) |
| --- | --- | --- | --- | --- | --- | --- | --- | --- | --- | --- | --- | --- | --- | --- |
| CCC(CC)COC(=O)[C@H](C)N[P@](=O)(OC[C@H]1O[C@@](C#N)(c2ccc3c(N)ncnn23)[C@H](O)[C@@H]1O)Oc1ccccc1 [Remdesivir, remdesivir, reference compound] | 19.8% | 21.9% | 25.2% | 38.1% | – | – | – | – | – | – | – | – | – | – |
| Cc1cc(O)c2c(=O)c3c(O)cc(O)c4c5c(O)cc(O)c6c(=O)c7c(O)cc(C)c8c1c2c(c34)c(c78)c65 [Hypericin] | – | – | – | – | 5 out of 7 | 14.6% | 12.9% | 12.8% | 20.4% | 62% | 62.6% | 38% | ≤ 62% | modest improvements in host cell viability |
